Results reported in patent US20180193361A1, “GUT ANTI-INFLAMMATORY AGENTS FOR REGULATION OF HIGH BLOOD GLUCOSE LEVELS” (UNIVERSITY HEALTH NETWORK, priority 2015, published 2018).

Legend:
HFD-fed C57BL/6 mice = assay: Food intake and metabolic cage studies, HFD or HFD 5-ASA; assay type: in vivo; conditions: HFD vs HFD 5-ASA, 14 weeks
Description: Mice. Mice were fed either NCD (15 kcal % fat) or HFD (Research Diets, 60 kcal % fat, irradiated) starting at 6 weeks of age. All studies were performed under the approval of Animal User Protocols by the Animal Care Committee at the University Health Network. Mice were maintained in a pathogen-free, temperature-controlled environment on a 12-hour light and dark cycle. All mice used in comparative studies were male, age-matched, and litter mates where possible. […] We confirmed T cell-specific floxing of the PPARγ gene in Lck-Cre+ PPARγfl/fl mice by qPCR with a minimum of at least 90% reduction in PPARγ expression. […] We placed mice in automated metabolic cages (Oxymax Systems, Columbus Instruments) for 48 hours with airflow held constant at 0.5 L/min. (Revelo et al., 2014). […] We measured metabolic activity using indirect calorimetry, recording maximal O2 consumption (VO2), CO2 production (VCO2), and heat production normalized to body weight. Respiratory exchange ratio (RER) was calculated as […]. The data shown are calculated for light and dark measurements as an average over 24 hours by combining light and dark measurements. Ambulatory activity was measured by the breaking of infrared laser beams in the XY plane.

[1] = system: spleen and blood immune cells, serum cytokines; assay: Systemic immune function during HFD feeding (spleen, blood, serum cytokines); assay type: in vivo, mice; conditions: HFD vs HFD 5-ASA
Description: We stained single cell suspensions for 30 min on ice with commercial antibodies. Flow cytometry antibodies including CD45.2 (104), CD3 (145-2C11), CD4 (GK1.5), CD8 (53-6.7), CD25 (PC61), γδTcR (GL3), Foxp3 (150D), IL-17 (TC11-18H10.1), IFNγ XMG1.2), α4β7 (DATK32), CCR9 (CW-1.2), CD11b (M1/70), F4/80 (BM8), CD11c (N418), CD206 (C068C2), Gr-1 (RB6-8C5), IL-7Rα (A7R34), B220 (RA3-6B2), Thy1.2 (30-H12), NKp46 (29A1.4), and Sca-1 (D7) were purchased from Biolegend. Intracellular staining was performed using a Foxp3 staining buffer kit (eBioscience). We acquired data on a Fortessa flow cytometer (BD Biosciences) and analyzed it with FlowJo software (Tree Star). We gated ILCs as described (Kirchberger et al., 2013).
We measured serum cytokines by Luminex Multiplex cytokine assay (Millipore, run by the UHN Microarray Center), and quantified IL-10 and IFN-γ in supernatants of anti-CD3/CD28-stimulated splenocytes or bowel immune cells (Winer et al., 2009b) by ELISA (Biolegend).

Rag1null mice = assay: Metabolic studies, Rag1null mice on HFD 5-ASA; assay type: in vivo; conditions: HFD vs HFD 5-ASA 1500 mg/kg/day, 8 weeks
Description: Mice. Mice were fed either NCD (15 kcal % fat) or HFD (Research Diets, 60 kcal % fat, irradiated) starting at 6 weeks of age. All studies were performed under the approval of Animal User Protocols by the Animal Care Committee at the University Health Network. Mice were maintained in a pathogen-free, temperature-controlled environment on a 12-hour light and dark cycle. All mice used in comparative studies were male, age-matched, and litter mates where possible.
We measured body weights, GTTs, ITTs, serum insulin, and fat cell diameter as previously described (Winer et al., 2009a). All GTTs were performed with a 1.5 g/kg glucose i.p. injection unless indicated otherwise.

[2] = system: intestinal epithelial barrier; assay: Gut permeability assay (FD4); assay type: in vivo, mice; conditions: HFD vs HFD 5-ASA, 12-16 weeks of diet, 4 hours after gavage
Description: We measured gut permeability in overnight fasted mice 4 hours after oral gavage with 0.4 mg/g of FITC-conjugated dextran (Sigma) as described (Dong et al., 2014).

[3] = system: oral tolerance to OVA antigen; assay: Oral tolerance studies (OVA); assay type: in vivo, mice; conditions: HFD 5-ASA vs HFD
Description: We administered oral ovalbumin (OVA) in the form of drinking water (1 mg/mL) for 7 days to NCD-, HFD- or HFD 5-ASA-fed mice to induce oral tolerance. Average consumption was similar across different groups, at 5 mL per day. Following oral tolerance induction, we immunized animals with or without oral tolerance induction subcutaneously with OVA/CFA (50 μg per side) on both sides of the chest. Axillary draining lymph nodes and VAT were collected 7 days following immunization and subjected to immunological analysis, including OVA323-339/I-A^b tetramer staining and OVA-induced cytokine production and proliferation in vitro. Briefly, we processed axillary lymph nodes into single-cell suspension through a 70 μm filter and cultured the cells (5×10^5/well) in 96-well U-bottom plate with indicated concentrations of OVA (Sigma). We collected culture supernatants at 48 h for determination of IL-2 and IFNγ via ELISA (Biolegend). To measure OVA-specific antibody responses, we performed ELISA by plating diluted serum samples (1:200-1:4000) onto OVA-coated ELISA plates (10 μg/mL), followed by biotinylated anti-mouse isotype-specific secondary antibodies (1:5000 dilution) (Southern Biotech) and HRP-conjugated streptavidin (Biolegend). To measure-OVA-specific Tregs, we stained VAT immune cells with a 1:200 dilution of PE-conjugated OVA323-339/I-A^b or control hCLIP/I-A^b tetramers (NIH Tetramer Core Facility) in FBS-supplemented RPM-I for 4 hours at 37° C., followed by antibody staining for other surface antigens and Foxp3.

Nc1ccc(O)c(C(=O)O)c1 [5-ASA, 5-aminosalicylic acid]
carbon dioxide output (HFD-fed C57BL/6 mice): no difference | food intake (HFD-fed C57BL/6 mice): no difference | oxygen consumption (HFD-fed C57BL/6 mice): no difference | circulating immune cell polarity in the blood ([1]; 14 weeks): no effects | immune cell populations in the spleen ([1]; 14 weeks): no effects | serum levels of cytokines ([1]; Luminex, 23 cytokines, 14 weeks): mostly unchanged | serum RANTES ([1]; Luminex, 14 weeks): significant but small increase | serum TNFα ([1]; Luminex, 14 weeks): reduction | stimulated spleen immune cell cytokine secretion ([1]; cultured splenocytes, anti-CD3/CD28 48 hrs): no effects | IR (Rag1null mice): no effect | body weight (Rag1null mice): no effect | glucose tolerance (Rag1null mice): no effect | intestinal epithelial barrier permeability (plasma FD4) [2]: significant improvements | OVA-specific IgA ([3]; oral OVA then OVA-CFA immunization): nearly threefold increase | antigen-specific Tregs to OVA in VAT ([3]; OVA/I-Ab tetramers): nearly fourfold increase | OVA-specific T cell-derived IFNγ ([3]; draining lymph nodes): reduction | OVA-specific T cell-derived IL-2 ([3]; draining lymph nodes): reduction
